From publication PMC11784839, “Monoaminergic neurotransmitters are bimodal effectors of tau aggregation” (Science Advances, 2025)

Target: tau (Homo sapiens, UniProt P10636)
Test: MCE Phenols Library screening, tau biosensor cell seeding assay (AvZ)
Format: cell-based
Details: for Z repl 1 / Z Repl 2: Z score; for Z repl 1 / raw data 1: replicate 1; for Z Repl 2 / raw data 2: replicate 2; for AvZ (average z score of seeding, SDs from the mean level of seeding): 10 μM phenol in cell cultures, AD brain homogenate preincubated 16 hours, two biological replicates, positive = catalyzes seeding, negative = inhibits
[1] = average Z score of the two replicates, MCE Phenols Library screen
[2] = average Z score of two replicates, Phenols Library screen
[3] = average puncta of the two replicates
[4] = average Z score of the two replicates, tau seeding

Chain of tau (P10636 623-695 limits assumed): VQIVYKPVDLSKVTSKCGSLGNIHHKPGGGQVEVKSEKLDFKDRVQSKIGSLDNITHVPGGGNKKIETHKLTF

Z repl 1 | Z Repl 2 | av Z [1] | av puncta (average of raw data 1 and 2) | raw data 1 (puncta) | raw data 2 (puncta) | av Z [2] | av puncta [3] | raw data 1 (raw puncta) | raw data 2 (raw puncta) | AvZ (average z score of seeding, SDs from the mean level of seeding) | SMILES | av Z [4] | av Z (average Z score of the two replicates, tau biosensor seeding, MCE Phenols Library screen)
-2.109 | -1.136 | -1.623 | 829.805 | 1030.3 | 629.309 | – | – | – | – | – | O=C(OC[C@H]1O[C@@H](OC(=O)c2cc(O)c(O)c(OC(=O)c3cc(O)c(O)c(O)c3)c2)[C@H](OC(=O)c2cc(O)c(O)c(OC(=O)c3cc(O)c(O)c(O)c3)c2)[C@@H](OC(=O)c2cc(O)c(O)c(OC(=O)c3cc(O)c(O)c(O)c3)c2)[C@@H]1OC(=O)c1cc(O)c(O)c(OC(=O)c2cc(O)c(O)c(O)c2)c1)c1cc(O)c(O)c(OC(=O)c2cc(O)c(O)c(O)c2)c1 [Tannic acid] | – | –
0.481 | -0.371 | – | 20458.8 | 32119.1 | 8798.38 | 0.055 | – | – | – | – | COc1cc(O)c2c(=O)cc(-c3ccccc3)oc2c1 [Tectochrysin] | – | –
-0.071 | -0.055 | – | 18839.4 | 25501.8 | 12177 | -0.063 | – | – | – | – | COc1c(O)cc2occ(-c3ccc(O)cc3)c(=O)c2c1O [Tectorigenin] | – | –
-0.53 | -0.01 | -0.27 | – | – | – | – | 16324 | 19990.7 | 12657.2 | – | COc1cc(/C=C/C(=O)O[C@H]2[C@H](O)[C@@H](CO)O[C@@]2(CO)O[C@H]2O[C@H](COC(=O)c3ccc(O)cc3)[C@@H](O)[C@H](O)[C@H]2O)cc(OC)c1O [Tenuifoliside B] | – | –
0.158 | -0.425 | – | 18236.7 | 28241.9 | 8231.59 | -0.133 | – | – | – | – | O=C(O)Cc1cc(I)c(Oc2cc(I)c(O)c(I)c2)c(I)c1 [Tetrac] | – | –
-1.086 | -0.943 | -1.014 | 8003.14 | 13309.5 | 2696.76 | – | – | – | – | – | COc1ccc(/C=C/C(=O)C(C)(C)C(=O)/C=C/c2ccc(OC)c(OC)c2)cc1OC [Tetramethylcurcumin] | – | –
-2.15 | -1.186 | – | 320.554 | 542.499 | 98.608 | – | – | – | – | – | O=C(O[C@@H]1Cc2c(O)cc(O)cc2O[C@@H]1c1cc(O)c(O)c2c(=O)c(O)cc([C@H]3Oc4cc(O)cc(O)c4C[C@H]3O)cc12)c1cc(O)c(O)c(O)c1 [Theaflavin-3'-gallate] | – | –
-2.035 | -1.192 | -1.614 | 972.721 | 1914.49 | 30.952 | – | – | – | – | – | O=C(O[C@@H]1Cc2c(O)cc(O)cc2O[C@@H]1c1cc(O)c(=O)c2c(O)c(O)cc([C@H]3Oc4cc(O)cc(O)c4C[C@H]3O)c2c1)c1cc(O)c(O)c(O)c1 [Theaflavin-3-gallate] | – | –
-0.67 | – | -0.921 | 9279.59 | 18310.3 | 248.899 | – | – | – | – | – | O=c1c(O)cc([C@H]2Oc3cc(O)cc(O)c3C[C@H]2O)cc2c([C@H]3Oc4cc(O)cc(O)c4C[C@H]3O)cc(O)c(O)c12 [Theaflavin] | – | –
-1.226 | -0.652 | -0.939 | 8713.6 | 11629.9 | 5797.27 | – | – | – | – | – | O=C(O[C@@H]1[C@@H](O)[C@H](Oc2cc(O)c(C(=O)CCc3ccccc3)c(O)c2)O[C@@H]2COC(=O)c3cc(O)c(O)c(O)c3-c3c(cc(O)c(O)c3O)C(=O)O[C@@H]12)c1cc(O)c(O)c(O)c1 [Thonningianin A] | – | –
-0.731 | -0.145 | -0.438 | – | – | – | – | 14393.7 | 17568.8 | 11218.6 | – | O=C(/C=C/c1ccc(O)cc1)OC[C@H]1O[C@@H](Oc2c(-c3ccc(O)cc3)oc3cc(O)cc(O)c3c2=O)[C@H](O)[C@@H](O)[C@@H]1O [Tribuloside] | – | –
0.764 | -0.24 | – | 22862 | 35522.1 | 10201.8 | – | – | – | – | – | O=C(CCc1ccc(O)cc1)c1c(O)cc(O[C@@H]2O[C@H](CO)[C@@H](O)[C@H](O)[C@H]2O)cc1O [Trilobatin] | 0.262 | –
-0.342 | -0.568 | -0.455 | – | 22246.4 | 6703.04 | – | 14474.7 | – | – | – | C[C@@H]1O[C@@H](OC[C@H]2O[C@@H](Oc3c(-c4ccc(OCCO)c(OCCO)c4)oc4cc(OCCO)cc(O)c4c3=O)[C@H](O)[C@@H](O)[C@@H]2O)[C@H](O)[C@H](O)[C@H]1O [Troxerutin] | – | –
-0.244 | 0.385 | – | 20147.8 | 23421.7 | 16873.8 | – | – | – | – | 0.07 | NCCc1ccc(O)cc1 [Tyramine] | – | –
-0.193 | 0.294 | – | 19965.6 | 24027 | 15904.1 | – | – | – | – | 0.05 | OCCc1ccc(O)cc1 [Tyrosol] | – | –
-0.755 | -0.316 | -0.535 | – | 17290 | 9394.79 | – | 13342.4 | – | – | – | O=c1oc2cc(O)ccc2c2cc(O)c(O)cc12 [Urolithin C] | – | –
0.198 | -0.736 | – | – | – | – | – | 16813.8 | 28727.3 | 4900.36 | -0.269 | COc1cc(CO)ccc1O [Vanillyl alcohol] | – | –
0.039 | -0.742 | – | – | – | – | – | 15824.3 | 26811.5 | 4837.1 | -0.352 | COc1cc(CC(=O)C(=O)O)ccc1O [Vanilpyruvic acid] | – | –
-0.258 | -1.055 | -0.656 | – | 23255.9 | 1501.28 | – | 12378.6 | – | – | – | C[C@@H]1O[C@@H](O[C@@H]2[C@@H](O)[C@H](OCCc3ccc(O)c(O)c3)O[C@H](CO)[C@H]2OC(=O)/C=C/c2ccc(O)c(O)c2)[C@H](O)[C@H](O)[C@H]1O [Verbascoside] | – | –
0.022 | -0.802 | -0.39 | – | – | – | – | 15407.7 | 26610.5 | 4204.9 | – | O=c1cc(-c2ccc(O)cc2)oc2c([C@@H]3O[C@H](CO)[C@@H](O)[C@H](O)[C@H]3O)c(O)c([C@@H]3OC[C@@H](O)[C@H](O)[C@H]3O)c(O)c12 [Vicenin-1] | – | –

SMILES | Z repl 1 | Z Repl 2 | av Z [1] | av puncta (average of raw data 1 and 2) | raw data 1 (puncta) | raw data 2 (puncta) | av Z [2] | av puncta [3] | raw data 1 (raw puncta) | raw data 2 (raw puncta) | AvZ (average z score of seeding, SDs from the mean level of seeding) | av Z [4] | av Z (average Z score of the two replicates, tau biosensor seeding, MCE Phenols Library screen)
CN(C)[C@@H]1C(O)=C(C(N)=O)C(=O)[C@@]2(O)C(O)=C3C(=O)c4c(O)cccc4[C@@](C)(O)[C@H]3C[C@@H]12.Cl [Tetracycline (hydrochloride)] | 0.657 | 0.47 | – | 26010.3 | 34234.2 | 17786.4 | – | – | – | – | – | 0.563 | –
COc1cc(CCC(=O)CC(=O)CCc2ccc(O)c(OC)c2)ccc1O [Tetrahydrocurcumin] | 0.298 | -0.72 | -0.211 | – | – | – | – | 17498 | 29921.4 | 5074.48 | – | – | –
CC(=O)Oc1ccc(/C=C/c2cc(OC(C)=O)cc(OC(C)=O)c2)cc1 [Triacetylresveratrol] | -0.969 | -0.064 | -0.517 | – | 14710.4 | 12082.6 | – | 13396.5 | – | – | – | – | –
CC(C)c1ccc2c(c1O)CC[C@H]1C3=C(CC[C@]21C)C(=O)OC3 [Triptophenolide] | 0.422 | 0.028 | – | 22243.1 | 31418 | 13068.1 | – | – | – | – | – | 0.225 | –
COc1cc(-c2oc3cc(O)cc(O)c3c(=O)c2O[C@@H]2O[C@H](CO[C@@H]3O[C@@H](C)[C@H](O)[C@@H](O)[C@H]3O)[C@@H](O)[C@H](O)[C@H]2O[C@@H]2O[C@@H](C)[C@H](O)[C@@H](O)[C@H]2O)ccc1O [Typhaneoside] | -0.172 | -0.068 | – | 18163.3 | 24283.7 | 12042.9 | -0.12 | – | – | – | – | – | –
O=c1ccc2ccc(O)cc2o1 [Umbelliferone] | -1.269 | -0.533 | -0.901 | 9095.02 | 11115.4 | 7074.65 | – | – | – | – | – | – | –
CC(=O)c1c(O)c(C)c(O)c2c1OC1=CC(=O)C(C(C)=O)C(=O)C12C (stereo not shown) [Usnic acid] | 1.459 | 0.735 | – | 32238.5 | 43858.6 | 20618.4 | – | – | – | – | – | – | 1.097
C[C@@H]1O[C@@H](Oc2cc(O)c3c(=O)c(O)c(-c4ccc(O)c(O)c4)oc3c2)[C@H](O)[C@H](O)[C@H]1O [Vincetoxicoside B] | -0.893 | -0.479 | -0.686 | – | 15632.1 | 7653.58 | – | 11642.8 | – | – | – | – | –
C[C@@H]1O[C@@H](O[C@@H]2[C@@H](O)[C@H](O)[C@@H](CO)O[C@H]2c2c(O)cc(O)c3c(=O)cc(-c4ccc(O)cc4)oc23)[C@H](O)[C@H](O)[C@H]1O [Vitexin-2"-O-rhamnoside] | 0.246 | -0.753 | -0.253 | – | – | – | – | 17015.1 | 29301.6 | 4728.59 | – | – | –
